{"source": "BindingDB's records for doi:10.1016/s0960-894x(99)00425-4", "about": "(Merck Research Laboratorie, 1999)", "data": [{"target": "Beta-lactamase CcrA (Bacteroides fragilis)", "assay": "Inhibitory activity against CCRA (Bacteroides fragilis) metallo-beta-lactamase", "units": {"IC50": "µM"}, "values": [{"smiles": "C[C@@H](NC(=O)c1ccccc1)C(=O)SCC(=O)O", "note": "[(R)-2-(2-benzamidopropanoylthio)acetic acid]", "IC50": "> 1000"}, {"smiles": "CC(=O)N[C@H](C)C(=O)S[C@H](Cc1ccc(-c2ccccc2)cc1)C(=O)O", "note": "[(R)-2-((R)-2-Acetylamino-propionylsulfanyl)-3-biphenyl-4-yl-propionic acid]", "IC50": 1000}, {"smiles": "CC(=O)N[C@H](C)C(=O)S[C@H](Cc1ccccc1)C(=O)O", "note": "[(R)-2-((R)-2-Acetylamino-propionylsulfanyl)-3-phenyl-propionic acid]", "IC50": "> 1000"}, {"smiles": "C=CCOC(=O)N[C@H](C)C(=O)S[C@H](Cc1ccc2oc3ccccc3c2c1)C(=O)O", "note": "[(R)-2-((R)-2-Allyloxycarbonylamino-propionylsulfanyl)-3-dibenzofuran-2-yl-propionic acid]", "IC50": "> 1500"}, {"smiles": "C[C@@H](NC(=O)c1ccccc1)C(=O)S[C@H](Cc1ccc(-c2ccccc2)cc1)C(=O)O", "note": "[(R)-2-((R)-2-Benzoylamino-propionylsulfanyl)-3-biphenyl-4-yl-propionic acid]", "IC50": 1000}, {"smiles": "C[C@@H](NC(=O)c1ccccc1)C(=O)S[C@H](Cc1ccc2oc3ccccc3c2c1)C(=O)O", "note": "[(R)-2-((R)-2-Benzoylamino-propionylsulfanyl)-3-dibenzofuran-2-yl-propionic acid]", "IC50": 680}, {"smiles": "CC(=O)S[C@H](Cc1ccc(-c2ccccc2)cc1)C(=O)O", "note": "[(R)-2-Acetylsulfanyl-3-biphenyl-4-yl-propionic acid]", "IC50": 750}, {"smiles": "CC(=O)S[C@H](Cc1ccc2oc3ccccc3c2c1)C(=O)O", "note": "[(R)-2-Acetylsulfanyl-3-dibenzofuran-2-yl-propionic acid]", "IC50": "> 500"}, {"smiles": "CC(=O)S[C@H](Cc1ccccc1)C(=O)O", "note": "[(R)-2-Acetylsulfanyl-3-phenyl-propionic acid]", "IC50": "> 1000"}, {"smiles": "O=C(S[C@H](Cc1ccccc1)C(=O)O)c1ccccc1", "note": "[(R)-2-Benzoylsulfanyl-3-phenyl-propionic acid]", "IC50": "> 1000"}, {"smiles": "CC(C)C(=O)N[C@H](C)C(=O)S[C@H](Cc1ccc(-c2ccccc2)cc1)C(=O)O", "note": "[(R)-3-Biphenyl-4-yl-2-((R)-2-isobutyrylamino-propionylsulfanyl)-propionic acid]", "IC50": "> 1500"}, {"smiles": "C[C@@H](NC(=O)Cc1ccccc1)C(=O)S[C@H](Cc1ccc(-c2ccccc2)cc1)C(=O)O", "note": "[(R)-3-Biphenyl-4-yl-2-((R)-2-phenylacetylamino-propionylsulfanyl)-propionic acid]", "IC50": "> 1500"}, {"smiles": "CCC(=O)N[C@H](C)C(=O)S[C@H](Cc1ccc(-c2ccccc2)cc1)C(=O)O", "note": "[(R)-3-Biphenyl-4-yl-2-((R)-2-propionylamino-propionylsulfanyl)-propionic acid]", "IC50": "> 1500"}, {"smiles": "C[C@@H](NC(=O)Cc1cccc2ccccc12)C(=O)S[C@H](Cc1ccc(-c2ccccc2)cc1)C(=O)O", "note": "[(R)-3-Biphenyl-4-yl-2-[(R)-2-(2-naphthalen-1-yl-acetylamino)-propionylsulfanyl]-propionic acid]", "IC50": "> 1500"}, {"smiles": "C[C@@H](NC(=O)COc1ccccc1)C(=O)S[C@H](Cc1ccc(-c2ccccc2)cc1)C(=O)O", "note": "[(R)-3-Biphenyl-4-yl-2-[(R)-2-(2-phenoxy-acetylamino)-propionylsulfanyl]-propionic acid]", "IC50": 930}, {"smiles": "O=C(O)[C@H](S)Cc1ccc(-c2ccccc2)cc1", "note": "[(R)-3-Biphenyl-4-yl-2-mercapto-propionic acid]", "IC50": 750}, {"smiles": "O=C(O)[C@H](S)Cc1ccc2oc3ccccc3c2c1", "note": "[(R)-3-Dibenzofuran-2-yl-2-mercapto-propionic acid]", "IC50": 9.9}, {"smiles": "C[C@@H](NC(=O)CCC(=O)O)C(=O)S[C@H](Cc1ccc(-c2ccccc2)cc1)C(=O)O", "note": "[N-[(R)-1-((R)-2-Biphenyl-4-yl-1-carboxy-ethylsulfanylcarbonyl)-ethyl]-succinamic acid]", "IC50": "> 1500"}]}]}
